{
  "source": "paper PMC3183106",
  "about": "(Pharmacological research : the official journal of the …, 2011)",
  "key": {"[1]": {"conditions": "mean ± SEM"}, "[2]": {"conditions": "mean ± SEM", "remark": "listed apart in the source"}, "[3]": {"conditions": "cited from earlier work"}, "[4]": {"conditions": "human, in vivo"}, "[5]": {"conditions": "cited from earlier work", "remark": "listed apart in the source"}},
  "note": "Where two headings read alike, the source gives them in different places.",
  "data": [
    {"compound": "CSCCCCNC(=S)SC[C@H](N)C(=O)NCC(=O)O", "note": "[ERN-CG, ERN-cysteinylglycine]", "values": [
      {"measurement": "Percent of metabolite relative to total for respective ITC in the plasma", "setting": "[1]; 12 hrs after broccoli sprouts, GSTP1 A/A (n=7)", "value": "69.4 ± 1.38", "unit": "%"},
      {"measurement": "Percent of metabolite relative to total for respective ITC in the plasma", "setting": "[1]; 12 hrs after broccoli sprouts, GSTP1 A/G (n=5)", "value": "67.6 ± 1.19", "unit": "%"},
      {"measurement": "Percent of metabolite relative to total for respective ITC in the plasma", "setting": "[1]; 12 hrs after broccoli supplement, GSTP1 A/A (n=7)", "value": "72.9 ± 1.78", "unit": "%"},
      {"measurement": "Percent of metabolite relative to total for respective ITC in the plasma", "setting": "[1]; 12 hrs after broccoli supplement, GSTP1 A/G (n=5)", "value": "75.1 ± 1.44", "unit": "%"},
      {"measurement": "Percent of metabolite relative to total metabolites for respective ITC in urine", "setting": "[2]; first 12 hrs after broccoli sprouts, GSTP1 A/A (n=7)", "value": "0.11 ± 0.01", "unit": "%"},
      {"measurement": "Percent of metabolite relative to total metabolites for respective ITC in urine", "setting": "[2]; first 12 hrs after broccoli sprouts, GSTP1 A/G (n=5)", "value": "0.12 ± 0.04", "unit": "%"},
      {"measurement": "Percent of metabolite relative to total metabolites for respective ITC in urine", "setting": "[2]; first 12 hrs after broccoli supplement, GSTP1 A/A (n=7)", "value": "0.89 ± 0.31", "unit": "%"},
      {"measurement": "Percent of metabolite relative to total metabolites for respective ITC in urine", "setting": "[2]; first 12 hrs after broccoli supplement, GSTP1 A/G (n=5)", "value": "2.00 ± 0.77", "unit": "%"}
    ]},
    {"compound": "CC(C)=CCC/C(C)=C/C=C/C(C)=C/C=C/C(C)=C/C=C/C=C(C)/C=C/C=C(C)/C=C/C=C(\\C)CCC=C(C)C", "note": "[Lycopene]", "values": [
      {"measurement": "Increase in serum concentrations", "setting": "[3]; heat processed tomato juice", "value": "2–3 fold"},
      {"measurement": "Change in serum concentrations", "setting": "[3]; unprocessed tomato juice", "value": "no change"}
    ]},
    {"compound": "C[S+]([O-])CCCCN=C=S", "note": "(stereo not shown) [SFN, sulforaphane]", "values": [
      {"measurement": "Time by which total metabolites almost completely cleared from the plasma", "setting": "[4]", "value": "≤ 24", "unit": "h"},
      {"measurement": "SFN recovered after consumption", "setting": "[5]; broccoli powder", "value": 19, "unit": "%"},
      {"measurement": "SFN recovered after consumption", "setting": "[5]; broccoli sprouts", "value": 74, "unit": "%"}
    ]}
  ]
}
